Like-named read-outs stand apart in the source and are kept apart here.
Legend:
[1] = target: T1, JAK3 (Homo sapiens, UniProt P52333); test: Microfluidic mobility shift enzyme assay; format: biochemical
T1 construct: purchased Carna Bioscience, Inc. (Japan)
T1 sequence (P52333 1-1124): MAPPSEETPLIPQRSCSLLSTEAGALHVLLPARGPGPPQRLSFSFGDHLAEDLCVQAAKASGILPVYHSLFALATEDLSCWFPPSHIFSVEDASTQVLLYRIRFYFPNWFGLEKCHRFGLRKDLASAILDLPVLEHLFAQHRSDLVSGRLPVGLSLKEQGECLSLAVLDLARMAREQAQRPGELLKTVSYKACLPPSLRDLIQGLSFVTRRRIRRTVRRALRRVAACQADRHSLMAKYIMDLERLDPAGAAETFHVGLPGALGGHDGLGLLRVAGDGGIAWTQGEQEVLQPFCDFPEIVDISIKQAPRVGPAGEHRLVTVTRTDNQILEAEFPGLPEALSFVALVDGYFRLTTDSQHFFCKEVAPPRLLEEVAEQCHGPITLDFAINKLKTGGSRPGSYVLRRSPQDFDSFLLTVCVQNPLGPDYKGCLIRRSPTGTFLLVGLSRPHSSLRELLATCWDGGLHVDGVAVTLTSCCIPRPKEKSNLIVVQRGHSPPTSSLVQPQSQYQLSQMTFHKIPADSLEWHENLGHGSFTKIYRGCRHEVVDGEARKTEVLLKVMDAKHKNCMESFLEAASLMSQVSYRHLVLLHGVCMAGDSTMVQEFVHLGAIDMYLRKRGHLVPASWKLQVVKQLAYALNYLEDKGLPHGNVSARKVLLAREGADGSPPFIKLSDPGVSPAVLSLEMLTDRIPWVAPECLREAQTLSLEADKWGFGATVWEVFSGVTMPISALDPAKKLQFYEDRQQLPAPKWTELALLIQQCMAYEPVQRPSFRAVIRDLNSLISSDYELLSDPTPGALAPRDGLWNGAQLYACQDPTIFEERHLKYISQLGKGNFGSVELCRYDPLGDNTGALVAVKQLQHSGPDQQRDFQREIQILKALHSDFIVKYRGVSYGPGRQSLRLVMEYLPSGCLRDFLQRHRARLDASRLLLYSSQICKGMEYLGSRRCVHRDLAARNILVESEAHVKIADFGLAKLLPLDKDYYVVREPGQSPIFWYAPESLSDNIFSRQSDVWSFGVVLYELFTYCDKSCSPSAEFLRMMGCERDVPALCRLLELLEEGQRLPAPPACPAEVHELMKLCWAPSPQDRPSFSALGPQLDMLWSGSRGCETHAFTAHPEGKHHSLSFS
Procedure: The microfluidic mobility shift enzyme assay was performed in an on-chip incubation mode on a Caliper LabChip 2000 Drug Discovery System (Caliper Life Sciences, Hopkinton, MA). The extent of inhibition by the compounds is measured directly by quantifying the level of both unphosphorylated peptide substrate and phosphorylated product after electrophoretic separation using Caliper's LabChip assay technology. To evaluate the compounds for their target and the mechanism by which the compound affects JAK enzyme activity, the compounds were tested against JAK family kinases (JAK1, JAK2, JAK3, and Tyk2) with the Caliper microfluidic mobility-shift platform. The JAK family kinase enzymes and the FAM-labeled substrates were purchased from Carna Bioscience, Inc. (Japan) and Caliper Bioscience (US), respectively.
For JAK kinase activity measurement, the test compounds were diluted freshly with assay buffer (100 mM HEP ES, 10 mM MgCl2, 1.5 mM betaine, 0.015% Brij, and 25 mM β-glycerophosphate) and added to 384-well plates. FAM-labeled peptide substrate and ATP in assay buffer were added to the wells. After that, JAK enzymes prepared in assay buffer were also added to the wells and mixed to start the reaction. After a period of incubation at room temperature, the reaction was stopped by stop solution (500 mM EDTA). Finally, the plate was put on a Caliper LabChip 2000 system and a droplet of the reaction mixture was applied for electrophoretic separation in the chips of the machine. The enzyme conversion data then was read out for analysis.

[2] = system: HuVec; test: Cell proliferation assay (CellTiter-Glo), control cell line; format: cell-based; conditions: Homo sapiens, 72 h
Procedure: All cells were obtained from the cell bank of the American Type Culture Collection (ATCC) and cultured in the supplier's recommended media supplemented with 10% FBS. The cell panel screen was measured using the CellTiter-Glo assay (Promega, Madison, WI) following a standard protocol. Briefly, cancer cells were seeded in 96-well plates and cultured overnight at 37°C with or without 5% CO2 in an incubator. Each compound was dissolved with limited DMSO and diluted to a certain concentration with culture medium and then added to the corresponding well of the cell plate. The final concentration of compound was 20 μM. The control cells (without treatment) received the same amount of DMSO and were incubated under the same conditions. After 72 h cultivation, 100 μL of the CellTiter-Glo reagent was added directly to each well for 10-minute incubation. The plate was then read on a FlexStation 3 microplate luminometer (Molecular Devices, USA) to monitor the luminescence signal generated by the luciferase-catalyzed reaction of luciferin and ATP. The percent of growth inhibition was calculated using the following formula: (untreated cells − treated cells)/(untreated cells − background without cells) ∗ 100.
For proliferation assays, the CellTiter-Glo assay (Promega, Madison, WI) was used to evaluate the proliferation of cancer cells treated with test compounds as described above. Each compound was dissolved in limited DMSO and diluted to various concentrations with culture medium and then added to the corresponding wells. A dose-response curve was plotted, and the IC50 was calculated using XLfit software.

[3] = system: PUMA, NOXA, and CDIP mRNA in NCI-H1650 cells; test: Quantitative real-time PCR of proapoptotic genes; format: cell-based, human; conditions: 24-hour treatment
Excerpt: The primers for PUMA (Cat. Hs00248075_m1), CDIP1 (Cat. Hs00924663_g1), and NOXA (Cat. Hs00560402_m1) for quantitative PCR were all purchased from Invitrogen. Dissociation curves and no-cDNA controls were generated for each primer pair to detect nonspecific amplification. A standard curve was generated for each primer pair as well as for glyceraldehyde-3-phosphate dehydrogenase (GAPDH; using in this case a predeveloped TaqMan assay), to which gene expression levels were normalized by a comparative threshold cycle method. Finally, a ratio was calculated comparing normalized gene expression values in treated versus untreated controls for each sample.
Total RNA was extracted from the NCI-H1650 cell line using the RNeasy kit (Qiagen). cDNA synthesis was performed using Superscript II RNase H– reverse transcriptase (Life Technologies, Bethesda, MD, USA) to transcribe 2 μg of total RNA primed with 1 μL of 500 μg/mL random hexamers. For quantitative real-time PCR analysis, an ABI TaqMan assay (HS00378697) was used in an ABI 7300 system with the following profile: 95°C for 10 min, followed by 40 cycles of 15 s at 95°C and 60 s at 60°C. PUMA, NOXA, and CDIP1 mRNA levels were normalized by comparison to GAPDH RNA levels in the same samples. Each measurement was performed at least in duplicate.

Row | SMILES | inhibition of JAK3 kinase activity (in words) [1] | IC50 ([1]; IC50, JAK3 enzyme) | IC50 [2] | induction of CIDP mRNA [3] | induction of NOXA mRNA [3] | induction of PUMA mRNA [3] | IC50 ([1]; JAK3 enzyme, read-out: IC50)
1 | CC(C)=CCC/C(C)=C/Cc1c(O)c(CC=C(C)C)c2c(c1O)C(=O)C1=C[C@@H]3C[C@H]4C(C)(C)O[C@@](CC=C(C)C)(C3=O)[C@@]14O2 [GB32] | minor inhibition | 17.5 ± 1.5 µM | 1.63 ± 0.06 µM | no effect | no effect | no effect | 
2 | CC(C)=CCC[C@@]1(C)C=Cc2c(O)c3c(c(CCC(C)(C)O)c2O1)O[C@]12C(=C[C@@H]4C[C@H]1C(C)(C)O[C@@]2(C/C=C(/C)C(=O)O)C4=O)C3=O [GB39, 33-hydroxyepigambogic acid] | significantly inhibited |  | 0.89 ± 0.09 µM | 3 fold | greater than 5 fold | 3 fold | 3.8 ± 0.3 µM
3 | CC(C)=CCC[C@@]1(C)C=Cc2c(O)c3c(c(C/C=C(\C)CO)c2O1)O[C@]12C(=C[C@@H]4C[C@H]1C(C)(C)O[C@@]2(C/C=C(/C)C(=O)O)C4=O)C3=O [GB40, 35-hydroxyepigambogic acid] | significantly inhibited |  | 0.68 ± 0.01 µM | 2 fold | greater than 5 fold | 2 fold | 3.2 ± 0.2 µM
4 | CC(C)=CCC/C(C)=C/Cc1c(O)c(CC=C(C)C)c2c(c1O)C(=O)C1=C[C@@H]3C[C@H]4C(C)(C)O[C@@](C/C=C(\C)C=O)(C3=O)[C@@]14O2 [GB49] |  |  | 1.47 ± 0.07 µM | no effect | no effect | no effect | 
5 | CC(C)=CCC/C(C)=C/Cc1c(O)c(CC=C(C)C)c2c(c1O)C(=O)C1=C[C@@H]3C[C@H]4C(C)(C)O[C@@](C/C=C(\C)C(=O)O)(C3=O)[C@@]14O2 [GB63] |  |  | 1.9 ± 0.03 µM | no effect | no effect | no effect | 
